{"source": "patent US5994334A", "about": "“Androgen synthesis inhibitors” (priority 1997, dated 1999)", "key": {"5α-reductase": {"system": "5α-reductase", "details": "cited from earlier work"}, "17α-hydroxylase": {"target": "17α-hydroxylase", "details": "[3H]-progesterone substrate; read-out: IC50 17α-hydroxylase (Potter et al.); cited from earlier work"}, "C17,20-lyase": {"target": "C17,20-lyase", "details": "[3H]-progesterone substrate; read-out: IC50 C17,20-lyase (Potter et al.); cited from earlier work"}, "[1]": {"system": "breast cancers in postmenopausal patients", "details": "human, in vivo; cited from earlier work"}, "[2]": {"system": "mutant AR which is expressed in LNCaP cells", "assay": "Androgen receptor-mediated gene transcription, mutant AR of LNCaP cells (luciferase, CV1 cells)", "format": "cell-based, human"}, "[3]": {"target": "human androgen receptor (AR) (Homo sapiens, UniProt P10275)", "sequence (P10275 whole entry)": "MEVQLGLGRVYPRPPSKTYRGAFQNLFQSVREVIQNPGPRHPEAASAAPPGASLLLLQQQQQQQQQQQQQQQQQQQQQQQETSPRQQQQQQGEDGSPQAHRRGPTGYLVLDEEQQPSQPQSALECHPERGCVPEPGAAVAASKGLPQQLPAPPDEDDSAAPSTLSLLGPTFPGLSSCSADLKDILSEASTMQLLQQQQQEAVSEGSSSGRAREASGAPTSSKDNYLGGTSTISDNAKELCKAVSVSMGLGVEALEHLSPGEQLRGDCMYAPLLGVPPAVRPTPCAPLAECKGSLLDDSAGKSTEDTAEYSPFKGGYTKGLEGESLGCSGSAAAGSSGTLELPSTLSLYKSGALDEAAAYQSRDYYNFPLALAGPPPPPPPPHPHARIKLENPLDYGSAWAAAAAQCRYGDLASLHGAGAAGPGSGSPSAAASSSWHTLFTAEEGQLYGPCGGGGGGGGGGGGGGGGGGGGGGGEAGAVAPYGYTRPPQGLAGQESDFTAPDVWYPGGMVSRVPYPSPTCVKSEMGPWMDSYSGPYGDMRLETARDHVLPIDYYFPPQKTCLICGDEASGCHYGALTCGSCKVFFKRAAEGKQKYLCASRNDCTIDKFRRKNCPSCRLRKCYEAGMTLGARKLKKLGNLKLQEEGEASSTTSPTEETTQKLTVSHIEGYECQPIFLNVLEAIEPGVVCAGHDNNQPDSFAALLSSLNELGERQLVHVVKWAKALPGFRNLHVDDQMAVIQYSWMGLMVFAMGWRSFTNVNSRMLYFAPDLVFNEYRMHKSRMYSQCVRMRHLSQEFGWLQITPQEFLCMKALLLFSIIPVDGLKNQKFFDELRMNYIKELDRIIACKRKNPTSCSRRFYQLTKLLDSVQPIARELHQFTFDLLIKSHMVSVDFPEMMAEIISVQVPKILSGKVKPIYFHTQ", "assay": "Androgen receptor-mediated gene transcription, wild-type AR (luciferase, CV1 cells)", "format": "cell-based", "details": "against DHT stimulation"}, "[4]": {"system": "LNCaP human prostatic cancer cell line", "assay": "Androgen-dependent growth of LNCaP cells", "details": "for reversal of DHT-stimulated LNCaP growth (in words): 0.03 nM DHT; for stimulation of LNCaP cell proliferation (in words): hydroxyflutamide 0.3-1 μM", "procedure": "The ability of various inhibitors to reverse the stimulatory effect of testosterone on the growth of the LNCaP human prostatic cancer cell line was tested by comparing cell number in wells treated for 9 days with either drug vehicle only (control), 0.1 nM testosterone only, or 0.1 nM testosterone with inhibitor at 0.3, 1, 2.5, or 5 μM."}, "rat 17α-hydroxylase": {"target": "rat 17α-hydroxylase (Rattus norvegicus, UniProt P11715)", "sequence (P11715 whole entry)": "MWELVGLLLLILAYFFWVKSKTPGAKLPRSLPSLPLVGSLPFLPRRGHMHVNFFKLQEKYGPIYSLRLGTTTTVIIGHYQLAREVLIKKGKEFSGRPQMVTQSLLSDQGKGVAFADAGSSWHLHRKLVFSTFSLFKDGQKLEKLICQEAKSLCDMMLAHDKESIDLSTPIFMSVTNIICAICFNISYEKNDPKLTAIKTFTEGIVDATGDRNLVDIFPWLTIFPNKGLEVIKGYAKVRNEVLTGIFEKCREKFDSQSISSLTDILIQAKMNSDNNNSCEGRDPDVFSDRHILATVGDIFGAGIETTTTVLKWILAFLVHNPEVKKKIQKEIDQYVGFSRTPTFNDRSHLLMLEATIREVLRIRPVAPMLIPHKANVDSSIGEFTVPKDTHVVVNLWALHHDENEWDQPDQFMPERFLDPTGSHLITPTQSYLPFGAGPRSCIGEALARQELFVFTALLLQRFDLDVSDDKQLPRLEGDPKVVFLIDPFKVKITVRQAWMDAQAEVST", "assay": "Inhibition kinetics of rat 17α-hydroxylase, progesterone substrate", "format": "biochemical", "excerpt": "(§1) Studies in normal male rats have been carried out with 4-pregnen-3-one-20β-carboxaldehyde (I-16) (Li et al., 1992) and with its 20-carboxaldoxime (I-23)(Li et al., 1995)."}, "[5]": {"system": "rat 17α-hydroxylase/C17,20-lyase", "assay": "Inhibition of rat 17α-hydroxylase/C17,20-lyase", "format": "biochemical", "excerpt": "as §1"}, "normal male rats": {"system": "normal male rats", "assay": "In vivo studies in normal male rats: hormone levels", "design": "species or system rat", "excerpt": "as §1"}, "[6]": {"target": "T1, Human Prostatic 5α-Reductase (Homo sapiens, UniProt P31213)", "T1 sequence (P31213 1-254)": "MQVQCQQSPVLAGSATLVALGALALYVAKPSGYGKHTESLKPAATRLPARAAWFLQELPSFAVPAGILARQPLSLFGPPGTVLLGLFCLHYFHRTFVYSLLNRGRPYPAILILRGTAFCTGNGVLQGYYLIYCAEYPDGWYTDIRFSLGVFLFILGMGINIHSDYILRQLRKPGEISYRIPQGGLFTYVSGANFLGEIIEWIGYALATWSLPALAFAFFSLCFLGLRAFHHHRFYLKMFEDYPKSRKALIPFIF", "assay": "Inhibition of human prostatic 5α-reductase (prostatic microsomes, [3H]testosterone)", "details": "for IC50: IC50 5α-reductase; for inhibition at 0.01 µM: read-out: % Inhibition of 5α-reductase, [I] 10 nM; for inhibition at 0.1 µM: read-out: % Inhibition of 5α-reductase, [I] 100 nM"}, "rat C17,20-lyase": {"target": "rat C17,20-lyase (Rattus norvegicus, UniProt P11715)", "sequence (P11715 whole entry)": "as the sequence (P11715 whole entry) above", "assay": "Inhibition kinetics of rat C17,20-lyase, 17α-hydroxyprogesterone substrate", "format": "biochemical", "details": "17α-hydroxyprogesterone as substrate; vs. Km 76 nM", "excerpt": "as §1"}, "[7]": {"target": "T1, Human Prostatic 5α-Reductase", "assay": "biochemical"}, "BPH patients": {"system": "BPH patients", "details": "cited from earlier work; for serum testosterone levels (in words): human, in vivo"}, "[8]": {"system": "5α-reductase Type I and Type II isoforms", "details": "cited from earlier work"}, "TRPM-2 gene": {"system": "TRPM-2 gene", "details": "vs castration; cited from earlier work"}, "[9]": {"system": "17α-hydroxylase/C17,20-lyase", "details": "cited from earlier work"}, "[10]": {"system": "cytochrome P450 steroidogenic enzymes", "details": "human, in vivo; cited from earlier work"}, "dogs": {"system": "dogs", "details": "vs finasteride; cited from earlier work"}, "[11]": {"details": "in vivo; cited from earlier work"}, "[12]": {"system": "human prostatic tissue (BPH or prostate cancer)", "assay": "Prostate tissue in histoculture, DNA synthesis ([3H]-thymidine uptake)", "details": "inhibitor 1 μM; testosterone 1 μM; FIG. 1", "procedure": "We recently developed a histoculture method to evaluate the growth inhibiting properties of the compounds on human prostatic tissue. […] The tissue samples were then incubated for 3 days in fresh medium/treatment containing 2 μCi/ml [^3 H]-thymidine. Tissue was then digested and DNA extracted. For each sample, [^3 H]-thymidine uptake was normalized to DNA content. […] This finding is consistent with the compound acting as an antiandrogen. None of the compounds produced an independent effect on DNA synthesis in the absence of added androgens."}, "[13]": {"system": "patients with prostatic cancer", "details": "combined with GnRH or orchidectomy vs GnRH agonist or orchidectomy alone; cited from earlier work"}, "mutant androgen receptor": {"system": "mutant androgen receptor", "details": "cited from earlier work"}, "[14]": {"details": "50 mg/kg/day sc, 21 days, vs control"}, "[15]": {"details": "50 mg/kg/day sc, 21 days, vs vehicle"}}}
{"smiles": "C[C@]12CC[C@H](O)CC1=CC[C@@H]1[C@@H]2CC[C@]2(C)C(c3cccnc3)=CC[C@@H]12", "note": "[CB7598, 17-(3'-pyridyl)androsta-5,16-diene-3-ol]", "values": [{"measurement": "inhibition of 5α-reductase, literature (in words)", "setting": "5α-reductase", "value": "no activity"}, {"measurement": "IC50", "setting": "17α-hydroxylase", "value": 4, "unit": "nM"}, {"measurement": "IC50", "setting": "C17,20-lyase", "value": 2.9, "unit": "nM"}]}
{"smiles": "C[C@]12CCC(=O)C(O)=C1CC[C@@H]1[C@@H]2CC[C@]2(C)C(=O)CC[C@@H]12", "note": "[Compound 4-OHA, 4-hydroxyandrostene-3,17-dione]", "values": [{"measurement": "side effects (in words)", "setting": "[1]", "value": "without significant side effects"}]}
{"smiles": "C[C@H](C=NO)[C@H]1CC[C@H]2[C@@H]3CCC4=CC(=O)CC[C@]4(C)[C@H]3CC[C@]12C", "note": "[Compound I-23, 3-oxo-4-pregnene-20β-carboxaldehyde oxime]", "values": [{"measurement": "agonism/antagonism at mutant AR of LNCaP cells (in words)", "setting": "[2]", "value": "agonists"}, {"measurement": "antagonism of wild-type AR (in words)", "setting": "[3]", "value": "dose-dependent antagonism"}, {"measurement": "reversal of DHT-stimulated LNCaP growth (in words)", "setting": "[4]", "value": "stimulation of growth above the level produced by DHT"}, {"measurement": "stimulation of LNCaP cell proliferation (in words)", "setting": "[4]; 0.1 nM testosterone", "value": "stimulated cell proliferation"}, {"measurement": "Ki", "setting": "rat 17α-hydroxylase", "value": 74, "unit": "nM"}, {"measurement": "inhibition of rat 17α-hydroxylase/C17,20-lyase (in words)", "setting": "[5]", "value": "inhibit rat 17α-hydroxylase/C17,20 -lyase"}, {"measurement": "decrease of prostatic DHT", "setting": "normal male rats; [14]", "value": 44, "unit": "%"}, {"measurement": "decrease of prostatic testosterone", "setting": "normal male rats; [14]", "value": 60, "unit": "%"}, {"measurement": "serum LH concentration (in words)", "setting": "normal male rats; [14]", "value": "unchanged"}, {"measurement": "reduction of serum testosterone", "setting": "normal male rats; [15]", "value": 65, "unit": "%"}, {"measurement": "reduction of testicular testosterone", "setting": "normal male rats; [15]", "value": 59, "unit": "%"}, {"measurement": "reduction of testosterone and DHT levels in serum, testicular and prostatic tissues (in words)", "setting": "normal male rats; rat", "value": "significantly reducing testosterone and DHT levels"}, {"measurement": "IC50", "setting": "[6]; Table 2", "value": 106, "unit": "nM"}, {"measurement": "inhibition of 5α-reductase (in words)", "setting": "[6]; NI = no inhibition", "value": "potent inhibition of 5α-reductase"}, {"measurement": "inhibition at 0.01 µM", "setting": "[6]", "value": 14.7, "unit": "%"}, {"measurement": "inhibition at 0.1 µM", "setting": "[6]", "value": 85.8, "unit": "%"}, {"measurement": "Ki", "setting": "rat C17,20-lyase", "value": 18, "unit": "nM"}, {"measurement": "Ki", "setting": "[7]", "value": 1.4, "unit": "nM"}]}
{"smiles": "CC(C)(C)NC(=O)[C@H]1CC[C@H]2[C@@H]3CC[C@H]4NC(=O)C=C[C@]4(C)[C@H]3CC[C@]12C", "note": "[Finasteride, reference compound]", "values": [{"measurement": "serum testosterone levels (in words)", "setting": "BPH patients", "value": "increase serum testosterone levels"}, {"measurement": "gynecomastia in long-term treatment (in words)", "setting": "BPH patients; long-term treatment", "value": "some patients developed gynecomastia which led to breast cancer in a few cases"}, {"measurement": "reduction of serum DHT", "setting": "BPH patients; patients", "value": "65-80%"}, {"measurement": "reversal of DHT-stimulated LNCaP growth (in words)", "setting": "[4]", "value": "dose-dependent reversal"}, {"measurement": "reversal of testosterone-stimulated LNCaP growth at 5 μM (in words)", "setting": "[4]; 0.1 nM testosterone, inhibitor 5 μM", "value": "almost completely reversed"}, {"measurement": "reversal of testosterone-stimulated LNCaP growth (in words)", "setting": "[4]; 0.1 nM testosterone, inhibitor 0.3-5 μM, 9 days", "value": "dose-dependent reversal"}, {"measurement": "IC50", "setting": "[4]; Homo sapiens, LNCaP, 216 h, read-out: concentration reducing the stimulatory effect of testosterone by 50%", "value": "≤ 1000", "unit": "nM"}, {"measurement": "IC50", "setting": "[6]", "value": 14, "unit": "nM"}, {"measurement": "IC50", "setting": "[6]; Table 2", "value": 14, "unit": "nM"}, {"measurement": "IC50", "setting": "[6]; Table 3, NI = no inhibition", "value": 14.4, "unit": "nM"}, {"measurement": "inhibition at 0.01 µM", "setting": "[6]", "value": 41.2, "unit": "%"}, {"measurement": "inhibition at 0.1 µM", "setting": "[6]", "value": 88.3, "unit": "%"}, {"measurement": "inhibition at 0.4 µM", "setting": "[6]; read-out: % Inhibition of 5α-reductase, [I] 400 nM", "value": 93, "unit": "%"}, {"measurement": "potency at 5α-reductase Type II vs Type I (in words)", "setting": "[8]", "value": "more potent inhibitor of the Type II than of the Type I isoform"}, {"measurement": "TRPM-2 expression (in words)", "setting": "TRPM-2 gene", "value": "not by finasteride treatment"}]}
{"smiles": "CC(=O)N1CCN(c2ccc(OCC3COC(Cn4ccnc4)(c4ccc(Cl)cc4Cl)O3)cc2)CC1", "note": "(stereo not drawn) [Ketoconazole]", "values": [{"measurement": "inhibition of 17α-hydroxylase/C17,20-lyase, literature (in words)", "setting": "[9]", "value": "not very potent"}, {"measurement": "side-effects (in words)", "setting": "[10]", "value": "inhibition of several other cytochrome P450 steroidogenic enzymes, and reduction of cortisol production"}, {"measurement": "IC50", "setting": "C17,20-lyase", "value": 26, "unit": "nM"}]}
{"smiles": "C[C@]12C=CC(=O)N[C@@H]1CC[C@@H]1[C@@H]2CC[C@]2(C)[C@@H](C(=O)c3ccccc3)CC[C@@H]12", "note": "[MK-434]", "values": [{"measurement": "reduction of prostatic DHT in dogs (in words)", "setting": "dogs", "value": "reduces prostatic DHT levels in dogs more effectively than finasteride"}, {"measurement": "serum testosterone levels (in words)", "setting": "BPH patients", "value": "increase serum testosterone levels"}]}
{"smiles": "CC(=O)[C@H]1CC[C@H]2[C@@H]3CCC4=CC(=O)CC[C@]4(C)[C@H]3CC[C@]12C", "note": "[Progesterone]", "values": [{"measurement": "inhibition of 5α-reductase, literature (in words)", "setting": "5α-reductase", "value": "potent 5α-reductase inhibitor"}, {"measurement": "metabolism and oral activity (in words)", "setting": "[11]", "value": "rapid metabolism in the body and lack of oral activity"}]}
{"smiles": "CC(C)C(=O)Nc1ccc([N+](=O)[O-])c(C(F)(F)F)c1", "note": "[flutamide, reference compound]", "values": [{"measurement": "reversal of testosterone-stimulated DNA synthesis (in words), 1 μM", "setting": "[12]", "value": "almost complete reversal"}, {"measurement": "progression-free survival (in words)", "setting": "[13]", "value": "increased progression-free survival time"}]}
{"smiles": "CC(C)(O)C(=O)Nc1ccc([N+](=O)[O-])c(C(F)(F)F)c1", "note": "[hydroxyflutamide, reference compound]", "values": [{"measurement": "stimulation of LNCaP cell proliferation (in words)", "setting": "[4]; 0.1 nM testosterone", "value": "stimulated cell proliferation"}, {"measurement": "effect on mutant AR / prostatic cell growth (in words)", "setting": "mutant androgen receptor", "value": "agonist activity for the mutant androgen receptor of LNCaP cells"}]}
